# Reference: the supplement of paper PMC10307832
# Legend:
# Test in all cases: relative viability (nuclei count vs DMSO), 5 days (fraction); higher = more cells survive
# [1] = compound: O=C(/C=C/c1ccccc1)NC(NC(=S)Nc1cccc2cccnc12)C(Cl)(Cl)Cl [Salubrinal] + CC(=O)c1c(C)c2cnc(Nc3ccc(N4CCNCC4)cn3)nc2n(C2CCCC2)c1=O [Palbociclib] (partner 0.5 µM)
# Method in brief: (§1)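 After 5 days of treatment, lung cancer cells in 1536-well plates were fixed and stained in a single step (final 0.05% Triton X-100, 1% formaldehyde, 1 ug/ml Hoechst) and their nuclei counted on 4× images. Treatment had been applied by pin tool the day after seeding as one drug alone or as a fixed anchor-drug dose with five library-drug doses (not always all listed) in √10 steps. Relative viability is the nuclei count of treated wells divided by that of vehicle wells, and values are medians of duplicate plates.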
# [2] = compound: O=C(/C=C/c1ccccc1)NC(NC(=S)Nc1cccc2cccnc12)C(Cl)(Cl)Cl [Salubrinal] + Cc1nc(NC(=O)N2CCC[C@H]2C(N)=O)sc1-c1ccnc(C(C)(C)C(F)(F)F)c1 [Alpelisib] (partner 2 µM)
# Method in brief: as §1
# [3] = compound: O=C(/C=C/c1ccccc1)NC(NC(=S)Nc1cccc2cccnc12)C(Cl)(Cl)Cl [Salubrinal] + Cc1cc(Nc2cc(N3CCN(C)CC3)nc(Sc3ccc(NC(=O)C4CC4)cc3)n2)n[nH]1 [Tozasertib] (partner 0.1 µM)
# Method in brief: as §1
# [4] = compound: O=C(/C=C/c1ccccc1)NC(NC(=S)Nc1cccc2cccnc12)C(Cl)(Cl)Cl [Salubrinal] + N=C(N)NC(=N)NCCc1ccccc1 [Phenformin] (partner 250 µM)
# Method in brief: as §1
Cell Line,relative viability ([1]; first compound 0.08 µM),relative viability ([1]; first compound 0.253 µM),relative viability ([1]; first compound 0.8 µM),relative viability ([1]; first compound 2.53 µM),relative viability ([1]; first compound 8 µM),relative viability ([2]; first compound 0.08 µM),relative viability ([2]; first compound 0.253 µM),relative viability ([2]; first compound 0.8 µM),relative viability ([2]; first compound 2.53 µM),relative viability ([2]; first compound 8 µM),relative viability ([3]; first compound 0.08 µM),relative viability ([3]; first compound 0.253 µM),relative viability ([3]; first compound 0.8 µM),relative viability ([3]; first compound 2.53 µM),relative viability ([3]; first compound 8 µM),relative viability ([4]; first compound 0.08 µM),relative viability ([4]; first compound 0.253 µM),relative viability ([4]; first compound 0.8 µM),relative viability ([4]; first compound 2.53 µM),relative viability ([4]; first compound 8 µM)
HCC-78,0.462,0.403,0.488,0.464,0.539,0.345,0.377,0.349,0.307,0.316,0.372,0.343,0.345,0.351,0.314,0.736,0.647,0.898,0.75,0.679
NCI-H1755,0.486,0.415,0.446,0.462,0.493,1.04,0.795,1.01,0.948,0.893,0.573,0.61,0.611,0.457,0.507,0.639,0.676,0.652,0.625,0.552
NCI-H3122,0.195,0.238,0.172,0.195,0.176,0.832,0.762,0.874,0.795,0.793,0.416,0.387,0.591,0.387,0.428,0.42,0.371,0.412,0.367,0.356
NCI-H358,0.154,0.137,0.123,0.109,0.138,1.03,0.676,0.886,0.792,0.675,0.107,0.12,0.111,0.108,0.0983,0.365,0.27,0.36,0.319,0.278
PC-14,0.708,0.434,0.609,0.47,0.384,1.05,0.756,1.14,0.968,0.562,0.629,0.663,0.638,0.525,0.601,0.696,0.551,0.576,0.677,0.687
SK-MES-1,0.33,0.356,0.33,0.305,0.259,1.01,0.888,1.09,0.992,0.664,1.01,0.816,1.04,0.895,0.694,0.703,0.64,0.668,0.672,0.605
NCI-H2347,0.452,0.462,0.415,0.388,0.387,1.11,0.928,1.25,1.06,1.08,0.619,0.543,0.617,0.51,0.568,0.321,0.35,0.399,0.363,0.43
NCI-H2228,0.613,–,1.04,0.752,0.567,0.87,0.582,0.792,0.861,0.725,0.268,0.304,0.283,0.222,0.197,0.319,0.265,0.441,0.315,0.247
